Data published in PMC7897990, “TriTOX: A novel Trichomonas vaginalis assay platform for high-throughput screening of compound libraries” (International Journal for Parasitology: Drugs and Drug …, 2021).
Counter-ions that a name gives are not always drawn. Like-named read-outs stand apart in the source and are kept apart here.

Legend:
[1] = test system: Trichomonas vaginalis G3 trophozoites; experiment: microbe, parasite or virus in culture; details: 48 h
[2] = test system: nontumorigenic neonatal foreskin fibroblast (NFF) cell line
[3] = test system: Trichomonas vaginalis G3 trophozoites; details: HTS, parasite screen at 1 µg/mL; for T.vaginalis_Absorbance_Rep1: replicate 1, raw absorbance; for T.vaginalis_Absorbance_Rep2: replicate 2, raw absorbance
[4] = read-out: T.vaginalis_%inb_Rep1
[5] = read-out: T.vaginalis_%inb_Rep2
[6] = NFF fibroblasts, single concentration 5 µg/mL
[7] = NFF fibroblast screen at 5 µg/mL, A = active, I = inactive

Structure (SMILES): CN(C)c1ncnc2c1ncn2[C@@H]1O[C@H](CO)[C@@H](N)[C@H]1O [Puromycin aminonucleoside]
- inhibition of growth at 1 µg/mL [1, 4]: 15.7%
- inhibition of growth at 1 µg/mL [1, 5]: 13%
- NFF_Activity [2, 6]: I (otherwise these were reported as inactive (I))

Structure (SMILES): C/C=C(\C)[C@H](O)[C@H](C)/C=C(C)/C=C/C/C(C)=C/Cc1nc(OC)c(OC)c(O)c1C [Piericidin A]
- inhibition of growth at 1 µg/mL [1, 4]: 11.3%
- inhibition of growth at 1 µg/mL [1, 5]: 4.17%
- NFF_Activity [2, 6]: I (otherwise these were reported as inactive (I))

Structure (SMILES): COc1ccc2c3c4n(c2c1)[C@H](C=C(C)C)OOC(C)(C)C[C@@H]4N1C(=O)[C@@H]2CCCN2C(=O)[C@]1(O)[C@H]3O [Verruculogen]
- inhibition of growth at 1 µg/mL [1, 4]: 10.3%
- inhibition of growth at 1 µg/mL [1, 5]: 10.6%
- NFF_Activity [2, 7]: I (otherwise these were reported as inactive (I))

Structure (SMILES): Cn1c2ccccc2c(=O)c2c(O)cc3c(c21)C=CC(C)(C)O3 [Noracronycine]
- inhibition of growth at 1 µg/mL [1, 4]: 8.76%
- inhibition of growth at 1 µg/mL [1, 5]: 12.6%
- NFF_Activity [2, 6]: I (otherwise these were reported as inactive (I))

Structure (SMILES): CN[C@H](CC(C)C)C(=O)N[C@H]1C(=O)N[C@@H](CC(N)=O)C(=O)N[C@H]2C(=O)N[C@H]3C(=O)N[C@H](C(=O)N[C@H](C(=O)O)c4cc(O)cc(O)c4-c4cc3ccc4O)[C@H](O)c3ccc(c(Cl)c3)Oc3cc2cc(c3O[C@@H]2O[C@H](CO)[C@@H](O)[C@H](O)[C@H]2O[C@H]2C[C@](C)(N)[C@H](O)[C@H](C)O2)Oc2ccc(cc2Cl)[C@H]1O [Vancomycin hydrochloride]
- inhibition of growth at 1 µg/mL [1, 4]: 1.36%
- inhibition of growth at 1 µg/mL [1, 5]: 5.42%
- NFF_Activity [2]: I (key: active (A) compounds having >25% inhibitory activity; otherwise these were reported as inactive (I))

Structure (SMILES): COC(=O)C1=C2Nc3ccccc3[C@@]23CCN2C[C@]4(C[C@@H]5C[C@]67CCC[C@H]6CCN6CC[C@@]8(c9cccc(OC)c9N(C4)[C@@]58O)[C@@H]67)[C@@H]4OCC[C@]4(C1)[C@H]23 [Vobtusine]
- inhibition of growth at 1 µg/mL [1, 4]: 9.54%
- inhibition of growth at 1 µg/mL [1, 5]: 11.4%
- NFF_Activity [2, 7]: I (otherwise these were reported as inactive (I))

Structure (SMILES): C[C@H]1C(=O)O[C@@H]2CCN3CC=C(COC(=O)[C@](C)(O)[C@]1(C)O)[C@H]23 [Monocrotaline]
- inhibition of growth at 1 µg/mL [1, 4]: 8.98%
- inhibition of growth at 1 µg/mL [1, 5]: 13.2%
- NFF_Activity [2, 6]: I (otherwise these were reported as inactive (I))

Structure (SMILES): CC1(C)C=Cc2cc3ccc(=O)oc3cc2O1 [Xanthyletin]
- inhibition of growth at 1 µg/mL [1, 4]: 12%
- inhibition of growth at 1 µg/mL [1, 5]: 15.5%
- NFF_Activity [2, 7]: I (otherwise these were reported as inactive (I))

Structure (SMILES): C=C(C)[C@@H]1NC(=O)[C@@H](NC)[C@@H](O)c2cc(Cl)c(O)c(c2)O[C@](C)(CC)[C@@H](C(=O)N2CC=C[C@H]2C(=O)N/C(C(=O)N/C(=C/C(=O)O)C(=O)O)=C(\C)CC)NC1=O [Phomopsin A]
- inhibition of growth at 1 µg/mL [1, 4]: 11.7%
- inhibition of growth at 1 µg/mL [1, 5]: 11%
- NFF_Activity [2, 6]: I (otherwise these were reported as inactive (I))

Structure (SMILES): C[C@H]1CCCC(=O)CCC/C=C/c2cc(O)cc(O)c2C(=O)O1 [Zearalenone]
- inhibition of growth at 1 µg/mL [1, 4]: 7.39%
- inhibition of growth at 1 µg/mL [1, 5]: 12%
- NFF_Activity [2, 7]: I (otherwise these were reported as inactive (I))

Structure (SMILES): C=C[C@]1(C)C[C@@H](OC(=O)CSCCN(CC)CC)[C@]2(C)[C@H](C)CC[C@]3(CCC(=O)[C@H]32)[C@@H](C)[C@@H]1O [Tiamulin]
- inhibition of growth at 1 µg/mL [1, 4]: 12.6%
- inhibition of growth at 1 µg/mL [1, 5]: 13.9%
- NFF_Activity [2, 7]: I (otherwise these were reported as inactive (I))

Structure (SMILES): COC1=CC(=O)C[C@@H](C)[C@]12Oc1c(Cl)c(OC)cc(OC)c1C2=O [Griseofulvin]
- inhibition of growth at 1 µg/mL [1, 4]: 12.4%
- inhibition of growth at 1 µg/mL [1, 5]: 12.1%
- T.vaginalis_Absorbance_Rep1 [3]: 0.947
- T.vaginalis_Absorbance_Rep2 [3]: 0.823

Structure (SMILES): C=C1CC[C@H]2C(C)(C)CCC[C@]2(C)[C@H]1C[C@@]12C[C@H]3C(=O)N4CCC[C@H]4C(=O)N3[C@@H]1Nc1ccccc12 [Drimentine C]
- inhibition of growth at 1 µg/mL [1, 4]: 10.4%
- inhibition of growth at 1 µg/mL [1, 5]: 13.8%
- T.vaginalis_Absorbance_Rep1 [3]: 0.907
- T.vaginalis_Absorbance_Rep2 [3]: 0.85
